Source: article PMC11144275 (The Lancet. Infectious diseases, 2019)
Where a name gives a salt, the structure may show the parent alone.

What was measured:
EBOV-Makona = assay: microbe, parasite or virus in culture; assay type: cell-based, Ebola virus
EBOV-Ituri = assay: microbe, parasite or virus in culture; assay type: cell-based, Ebola virus

| SMILES | EBOV-Makona Selectivity index (EBOV-Makona) | EBOV-Ituri Selectivity index (EBOV-Ituri) | CC50 (Huh-7 cells) | EC50 (EBOV-Makona; Zaire ebolavirus, Huh-7, read-out: EC50 EBOV-Makona) | EC50 (EBOV-Ituri; Zaire ebolavirus, Huh-7, read-out: EC50 EBOV-Ituri) |
| --- | --- | --- | --- | --- | --- |
| Nc1ccn([C@@H]2O[C@H](CO)[C@@H](O)[C@H]2F)c(=O)n1 [2′-deoxy-2′-fluorocytidine] | >16 | >14 | – | – | – |
| NCC(=O)Nc1ccc(-n2nc(C(F)(F)F)cc2-c2ccc3c(ccc4ccccc43)c2)cc1 [AR-12] | – | – | 3·67 (0·14) μM | – | – |
| CCN(CC)CCOc1ccc(C(=C(Cl)c2ccccc2)c2ccccc2)cc1 [Clomifene citrate] | – | – | 8·43 (1·08) μM | – | – |
| COc1c(C)c2c(c(O)c1C/C=C(\C)CCC(=O)OCCN1CCOCC1)C(=O)OC2 [Mycophenolate mofetil] | 97 | 89 | 14·2 (4·3) μM | – | – |
| CCC(CC)COC(=O)[C@H](C)N[P@](=O)(OC[C@H]1O[C@@](C#N)(c2ccc3c(N)ncnn23)[C@H](O)[C@@H]1O)Oc1ccccc1 [Remdesivir] | – | – | 3·63 (2·88) μM | 12 nM | 13 nM |
| NC(=O)c1ncn([C@@H]2O[C@H](CO)[C@@H](O)[C@H]2O)n1 [Ribavirin] | >4 | >3 | – | – | – |
| CC/C(=C(\c1ccccc1)c1ccc(OCCN(C)C)cc1)c1ccccc1 [Tamoxifen] | – | – | 16·29 (12·05) μM | – | – |
| CN(C)CCOc1ccc(/C(=C(/CCCl)c2ccccc2)c2ccccc2)cc1 [Toremifene citrate] | >250 | >625 | – | – | – |
